For ten compounds, Kd, GI50 and IC50 results are on record in ChEMBL document CHEMBL5252613, “Discovery and anti-tumor activity of 4-(benzylamino)-6-(3,5-dimethylisoxazol-4-yl)quinolin-2(1H)-one (CG13250), a potent, selective and orally bioavailable BET bromodomain inhibitor” (Bioorg Med Chem Lett, 2023).

The target in assay [1] is T1, Bromodomain-containing protein 4 (Homo sapiens, UniProt O60885). Nature of the assay: Inhibition of BRD4 bromodomain 1/2 (unknown origin) assessed as dissociation constant by DiscoveRx BROMOscan assay.
Assay [2] relates to MV4-11. Nature of the assay: Growth inhibition of human MV4-11 cells measured after 72 hrs. Type of assay: functional.
Assay [3] concerns the target T1, Bromodomain-containing protein 4. Nature of the assay: Inhibition of BRD4 bromodomain 1/2 (unknown origin) by Alphascreen assay.

The structures appear in SMILES notation.

One may read the Kd as the concentration at which binding is half-saturated. In general, GI50 refers to the concentration giving 50% growth inhibition. `COc1cccc(CNc2cc(=O)[nH]c3ccc(-c4c(C)noc4C)cc23)c1`: the Kd in assay [1] amounted to 95 nM. In assay [2], this compound had a GI50 of 1580 nM.
For `Cc1noc(C)c1-c1ccc2[nH]c(=O)cc(NCc3cccc(Cl)c3)c2c1` the same measures were 28 nM and 1220 nM.
The term IC50 denotes the concentration needed to halve the response being measured. The low end stands for greater potency, the high end for weaker potency. `Cc1ccc(-c2nnc(Sc3c(-c4ccccc4)c4cc(Br)ccc4[nH]c3=O)n2N)cc1` showed an IC50 in assay [3] of 3700 nM. Also, it took 220 nM to inhibit growth in assay [2] by half (GI50).
Consider `Cc1noc(C)c1-c1ccc2c(-c3ccccc3)cc(=O)[nH]c2c1`, for which 3100 nM corresponded to half-maximal inhibition in assay [3] (IC50). The Kd in assay [1] worked out at 7400 nM. Moreover, the GI50 in assay [2] is 14000 nM.
For the compound `Cc1noc(C)c1-c1ccc2[nH]c(=O)cc(NCc3ccccc3Br)c2c1`, the Kd in assay [1] came out at 210 nM. In addition, in assay [2], the GI50 was determined as 3500 nM.
Consider `Cc1noc(C)c1-c1ccc2[nH]c(=O)cc(NCc3cccc(Br)c3)c2c1`, for which the Kd in assay [1] was determined as 53 nM. In assay [2], this compound came in with a GI50 of 731 nM.
For `Cc1noc(C)c1-c1ccc2[nH]c(=O)cc(NCc3ccccc3Cl)c2c1` the same measures were 55 nM and 1660 nM.
For the compound `Cc1noc(C)c1-c1ccc2[nH]c(=O)cc(N3CCOCC3)c2c1`, the Kd in assay [1] was found to be 570 nM.
Consider `Cc1noc(C)c1-c1ccc2[nH]c(=O)cc(NCc3cc(Cl)cc(Cl)c3)c2c1`, for which the Kd in assay [1] was found to be 170 nM. Further, in assay [2], the GI50 was determined as 1400 nM.
For `Cc1noc(C)c1-c1ccc2[nH]c(=O)cc(N3CCCC3)c2c1` the same measures were 370 nM and 1990 nM.
